Source: ChEMBL document CHEMBL1268903, “Biologically active biotin derivatives of schweinfurthin F” (Bioorg Med Chem Lett, 2010)

Experiments:
A549 = experiment: Cytotoxicity against human A549 cells; format: functional, cell-based
SF-295 = experiment: Cytotoxicity against human SF295 cells; format: functional, cell-based
[1] = Cytotoxicity against human NCI60 cells; format: functional

Row | SMILES | EC50 (A549) | EC50 (SF-295) | GI50 [1]
1 | COCOc1cc(/C=C/c2cc3c(c(OC)c2)O[C@]2(C)CC[C@@H](O)C(C)(C)[C@H]2C3)cc(OC)c1C/C=C(\C)C/C=C/C(C)CNC(=O)CCCC[C@H]1SC[C@H]2NC(=O)N[C@H]21 (stereo partly drawn) | 5000 nM | 1100 nM | –
2 | CC(C)=CCC/C(C)=C/Cc1c(O)cc(/C=C/c2cc(O)c3c(c2)C[C@@H]2C(C)(C)[C@H](O)[C@H](O)C[C@@]2(C)O3)cc1O [SCHWEINFURTHIN A] | – | – | 1000 nM
3 | COCOc1cc(/C=C/c2cc3c(c(OC)c2)O[C@]2(C)CC[C@@H](O)C(C)(C)[C@H]2C3)cc(OC)c1C/C=C(\C)C/C=C/C(C)COC(=O)CCCC[C@H]1SC[C@H]2NC(=O)N[C@H]21 (stereo partly drawn) | > 10000 nM | 2700 nM | –
4 | COc1cc(/C=C/c2cc(O)c(CC=C(C)C)c(O)c2)cc2c1O[C@]1(C)CC[C@@H](O)C(C)(C)[C@H]1C2 [SCHWEINFURTHIN F] | – | – | 1000 nM
5 | COc1cc(/C=C/c2cc(O)c(C/C=C(\C)CCC=C(C)C)c(O)c2)cc2c1O[C@]1(C)CC[C@@H](O)C(C)(C)[C@H]1C2 [3-DEOXYSCHWEINFURTHIN B] | 4900 nM | – | 1000 nM
